Test results taken from patent US10640527B2, “Mesitylene-cored amphiphiles and uses thereof” (Industry-University Cooperation Foundation Hanyang …, priority 2016, dated 2020).

Legend:
[1] = Critical micelle concentration by fluorophore encapsulation using diphenylhexatriene (DPH); assay type: physicochemical; details: aqueous solution
Experimental: A method of measuring a CMC is not particularly limited, and those methods widely known in the related field may be used. For example, a CMC may be measured by a fluorophore encapsulation method using diphenylhexatriene (DPH).
(§1) Specifically, a CMC was measured by a fluorophorescent encapsulation method using diphenylhexatriene (DPH) and an Rh of a micelle formed by each formulation (1.0 wt %) was measured using a dynamic light scattering (DLS) experiment.

[2] = Hydrodynamic radius / size distribution of micelles by dynamic light scattering (DLS); assay type: physicochemical; details: 1.0 wt % amphiphile
Experimental: A method of measuring a radius of the micelle is not particularly limited, and those methods widely known in the related field may be used, for example, a dynamic light scattering (DLS) experiment may be used for measurement.
as §1

[3] = biological target: T1, uric acid-xanthine/H+ symporter (UapA) (Emericella nidulans, UniProt Q07307, G411V); experiment: UapA structural (thermal) stability, CPM assay; assay type: biochemical, Aspergillus nidulans; details: for effect in maintaining folded UapA, ranking among MGAs: CMC+0.2 wt %, 40° C., 120 minutes
T1 construct: GFP; made in house; host or cells: Saccharomyces cerevisiae FGY217
Experimental: An experiment for measuring the structural stability of uric acid-xanthine/H^+ symporter (UapA) solubilized in MGAs in an aqueous solution was performed. The structural stability of UapA was measured using a CPM assay, and was measured at MGAs and DDM concentrations of (a) CMC+0.04 wt %, or (b) CMC+0.2 wt %.
Specifically, a UapA protein is a uric acid-xanthine/H^+ symporter in Aspergillus nidulans. Protein stability was measured by fluorescence spectroscopy using N-[4-(7-diethylamino-4-methyl-3-coumarinyl)phenyl]maleimide (CPM) which is a sulfhydryl-specific fluorophore. A free sulfhydryl group of a cysteine residue is in the interior of a protein, but becomes accessible to a solvent upon protein unfolding. CPM becomes fluorescent by a reaction with the free thiol, and thus provides as a protein unfolding sensor. In order to measure thermal stability, first, UapAG411V1-11 was expressed in the Saccharomyces cerevisiae FGY217 strain by fusion with GFP, and separated in a sample buffer (20 mM Tris (pH 7.5), 150 mM NaCl, 0.03% DDM and 1 mM xanthine) according to a method described in a research article (Mol. Membr. Biol. 2013, 30, 32-42) by J. Leung et al. A UapA protein was concentrated to about 10 mg/ml using a 100 kDa molecular weight cut-off filter (Millipore). The concentrated protein was diluted to a ratio of 1:150 with each buffer including DDM or MGA (MGA-C10, MGA-C11, MGA-C12, MGA-C13, MGA-C14 or MGA-C15) at a concentration of CMC+0.04 wt % or CMC+0.2 wt % in a Greiner 96-well plate. A CPM dye (Invitrogen) stored in DMSO (Sigma) was diluted with a dye buffer (20 mM Tris (pH 7.5), 150 mM NaCl, 0.03% DDM and 5 mM EDTA), and 3 μl of the diluted dye was added to each protein sample. The reaction mixture was incubated at 40° C. for 120 minutes. Fluorescence emission was monitored using a microplate spectrofluorometer, with an excitation wavelength at 387 nm and an emission wavelength at 463 nm. Relative maximum fluorescence was used to calculate a percentage of relative folded protein remaining after 120 minutes at 40° C. Relative unfolded proteins were plotted against time using GraphPad Prism.
Specifically, a UapA stabilization effect was evaluated by the same method as in Experimental Example 2 using MGA-C13, MGA-C14, MNG-3 or DDM at a concentration of (a) CMC+0.04 wt % or (b) CMC+0.2 wt %.

[4] = tested on: leucine transporter (LeuT); experiment: LeuT long-term stability, [3H]-Leu binding by scintillation proximity assay (SPA); assay type: biochemical, Aquifex aeolicus
Experimental: An experiment for measuring the structural stability of LeuT proteins according to MGAs (MGA-C11, MGA-C12, MGA-C13, MGA-C14 and MGA-C15) was performed. Each amphiphile was used at a concentration of (a) CMC+0.04 wt % or (b) CMC+0.2 wt %, a ligand-binding activity of LeuT was measured by scintillation proximity assay (SPA) using [^3H]-Leucine. The measurement was performed at regular intervals at room temperature during 12 days of incubation.
Specifically, a thermophilic bacteria Aquifex aeolicus-derived wild type LeuT was purified using a previously described method (Nature, G. Deckert et al., 1998, 392, 353-358). To sum up, the LeuT was expressed in E. coli C41 (DE3) cultured in a lysogeny broth medium supplemented with 0.1 mg/ml ampicillin. Expression of proteins was induced by adding isopropyl β-D-thiogalactopyranoside to a final concentration of 0.1 mM.
A cell membrane was separated from a crushed cell (Constant Systems Homogenizers, Kennesaw, Ga.), and solubilized in 1% (w/v) n-dodecyl-β-D-maltopyranoside (DDM; Affymetrix, Santa Clara, Calif.). After solubilization, LeuT was fixed in a Ni^2+-NTA resin (Life Technologies, Denmark), and eluted in 20 mM Tris-HCl (pH 7.5), 199 mM KCl, 1 mM NaCl, 0.05% (w/v) DDM and 300 mM imidazole. Thereafter, purified LeuT (about 1.5 mg/ml) was diluted tenfold with a buffer supplemented with MGA (MGA-C11, MGA-C12, MGA-C13, MGA-C14 or MGA-C15) or DDM to the final concentration of CMC+0.04% (w/v) or CMC+0.2% (w/v) while excluding DDM and imidazole from the above-described buffers. Protein samples were stored at room temperature for 12 days, and protein activity was determined by measuring [^3H]-Leu binding by SPA at a specified time. SPA was carried out using 450 mM NaCl and buffers containing each MGA, and a SPA reaction was performed in the presence of 20 nM [^3H]-Leu and 1.25 mg/ml copper chelate (His-Tag) YSi beads (Perkin Elmer, Denmark). [^3H]-Leu binding was measured using a MicroBeta liquid scintillation counter (Perkin Elmer).

[5] = biological target: T2, melibiose permease (MelBSt) (Salmonella typhimurium, UniProt P30878); experiment: MelBSt extraction from membranes and thermal stability, SDS-PAGE and Western blotting; assay type: biochemical; details: 1.5 wt %, 90 minutes
T2 construct: made in house; host or cells: DW2 cells (ΔmelB and ΔlacZY), Salmonella typhimurium DW2
Experimental: An experiment for measuring the structural stability of Salmonella typhimurium melibiose permease (MelBSt) according to MGAs in an aqueous solution was performed. After MelBSt proteins were extracted from a membrane using MGAs or DDM, the amount and structure of extracted proteins were analyzed by SDS-PAGE and western blotting. The concentration of used amphiphiles was 1.5 wt %, and proteins were extracted at four different temperatures of 0, 45, 55 and 65° C. to evaluate both the protein extraction efficiency and stabilizing ability of a compound. A membrane sample which had not been treated with MGAs or DDM was used as a control group.
Specifically, MelBSt stability solubilized in DDM or MGAs was evaluated according to a method described in 2010 in a research article (P. S. Chae et al., Nat. Methods 2010, 7, 1003-1008.) by the inventors of the present invention. Proteins (MelBSt) were produced using plasmid pK95ΔAHB/WT MelBSt/CH10 encoding the wild-type MelB with a 6-His tag at the C-terminus and Salmonella typhimurium DW2 cells (ΔmelB and ΔlacZY). Cell growth and membrane preparation was performed according to a method described in a research article (Nat. Commun. 2014, 5, 3009) by A. S. Ethayathulla, et al. A protein assay was carried out using a Micro BCA kit (Thermo Scientific, Rockford, Ill.). In order to measure protein solubilization, a membrane sample (final protein concentration was 10 mg/mL) containing MelBSt was incubated with a solubilization buffer (20 mM sodium phosphate, pH 7.5, 200 mM NaCl, 10% glycerol and 20 mM melibiose) and 1.5% (w/v) DDM or MGA (MGA-C10, MGA-C11, MGA-C12, MGA-C13, MGA-C14 or MGA-C15) at four different temperatures of 0, 45, 55 and 65° C. for 90 minutes. After ultracentrifugation at 355,590 g in a Beckman Optima™ MAX Ultracentrifuge using a TLA-100 rotor for 45 min at 4° C., 20 μg of a protein was separated by SDS-16% PAGE and immunoblotted with a Penta-His-HRP antibody (Qiagen, Germantown, Md.). MelBSt was measured by an ImageQuant LAS 4000 Biomolecular Imager (GE Healthcare Life Sciences) using a SuperSignal West Pico chemiluminescent substrate.

T1 sequence (Q07307 12-574 G411V): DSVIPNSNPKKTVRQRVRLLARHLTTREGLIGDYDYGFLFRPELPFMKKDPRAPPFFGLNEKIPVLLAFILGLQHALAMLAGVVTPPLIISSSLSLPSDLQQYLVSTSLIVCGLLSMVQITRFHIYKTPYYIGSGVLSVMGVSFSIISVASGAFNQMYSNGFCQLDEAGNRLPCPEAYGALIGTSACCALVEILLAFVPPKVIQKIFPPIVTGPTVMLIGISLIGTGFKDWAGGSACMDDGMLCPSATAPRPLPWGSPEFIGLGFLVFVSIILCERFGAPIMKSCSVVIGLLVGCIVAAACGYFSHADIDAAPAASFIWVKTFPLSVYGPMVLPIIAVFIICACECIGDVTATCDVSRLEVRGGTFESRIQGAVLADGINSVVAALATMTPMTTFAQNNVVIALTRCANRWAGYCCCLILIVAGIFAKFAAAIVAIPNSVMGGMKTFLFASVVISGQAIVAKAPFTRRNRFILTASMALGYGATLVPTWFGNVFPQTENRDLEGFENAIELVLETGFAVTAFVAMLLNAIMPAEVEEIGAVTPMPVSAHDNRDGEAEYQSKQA
T2 sequence (P30878 whole entry): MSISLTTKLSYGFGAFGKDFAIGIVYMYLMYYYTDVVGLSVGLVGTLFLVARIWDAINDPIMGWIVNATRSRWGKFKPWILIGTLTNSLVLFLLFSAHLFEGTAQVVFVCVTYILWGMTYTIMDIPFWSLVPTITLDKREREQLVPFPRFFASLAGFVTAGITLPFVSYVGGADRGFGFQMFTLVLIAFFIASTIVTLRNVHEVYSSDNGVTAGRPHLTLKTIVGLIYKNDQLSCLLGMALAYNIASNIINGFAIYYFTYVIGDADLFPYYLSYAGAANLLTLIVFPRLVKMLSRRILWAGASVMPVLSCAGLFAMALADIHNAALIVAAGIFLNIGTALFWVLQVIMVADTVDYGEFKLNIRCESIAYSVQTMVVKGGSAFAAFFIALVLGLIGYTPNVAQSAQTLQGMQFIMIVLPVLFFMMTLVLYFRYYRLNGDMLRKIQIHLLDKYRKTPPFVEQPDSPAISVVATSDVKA

Row | SMILES | CMC [1] | CMC (wt %) [1] | Rh (nm), hydrodynamic radius of micelle [2] | effect in maintaining folded UapA, ranking among MGAs [3] | preservation of long-term stability of LeuT, comparison with DDM and ranking ([4]; 12 days at room temperature, CMC+0.04 wt % or CMC+0.2 wt %) | LeuT ligand-binding activity retained, % of initial activity ([4]; after 12 days of incubation at room temperature) | UapA stabilization effect compared with MNG-3 ([3]; CMC+0.04 wt % or CMC+0.2 wt %, FIG. 25) | MelBSt protein extraction efficiency compared with DDM ([5]; 45° C.) | MelBSt extraction ability compared with DDM ([5]; 55° C.)
1 | CCCCCCCCCCC(CO[C@@H]1OC(CO)[C@@H](O)C(O)C1O)(CO[C@@H]1OC(CO)[C@@H](O)C(O)C1O)Cc1cc(CC(CCCCCCCCCC)(CO[C@@H]2OC(CO)[C@@H](O)C(O)C2O)CO[C@@H]2OC(CO)[C@@H](O)C(O)C2O)cc(CC(CCCCCCCCCC)(CO[C@@H]2OC(CO)[C@@H](O)C(O)C2O)CO[C@@H]2OC(CO)[C@@H](O)C(O)C2O)c1 (stereo partly drawn) [MGA-C10] | ~8 µM | ~0.0014 wt % | 2.9 ± 0.01 nm | less effective than the above-described MGAs, but still higher than DDM |  |  |  |  | 
2 | CCCCCCCCCCCC(CO[C@@H]1OC(CO)[C@@H](O)C(O)C1O)(CO[C@@H]1OC(CO)[C@@H](O)C(O)C1O)Cc1cc(CC(CCCCCCCCCCC)(CO[C@@H]2OC(CO)[C@@H](O)C(O)C2O)CO[C@@H]2OC(CO)[C@@H](O)C(O)C2O)cc(CC(CCCCCCCCCCC)(CO[C@@H]2OC(CO)[C@@H](O)C(O)C2O)CO[C@@H]2OC(CO)[C@@H](O)C(O)C2O)c1 (stereo partly drawn) [MGA-C11] | ~5 µM | ~0.009 wt % | 3.0 ± 0.04 nm | less effective than the above-described MGAs, but still higher than DDM | the most excellent MGA | ~90% |  |  | 
3 | CCCCCCCCCCCCC(CO[C@@H]1OC(CO)[C@@H](O)C(O)C1O)(CO[C@@H]1OC(CO)[C@@H](O)C(O)C1O)Cc1cc(CC(CCCCCCCCCCCC)(CO[C@@H]2OC(CO)[C@@H](O)C(O)C2O)CO[C@@H]2OC(CO)[C@@H](O)C(O)C2O)cc(CC(CCCCCCCCCCCC)(CO[C@@H]2OC(CO)[C@@H](O)C(O)C2O)CO[C@@H]2OC(CO)[C@@H](O)C(O)C2O)c1 (stereo partly drawn) [MGA-C12] | ~3.5 µM | ~0.0006 wt % | 3.1 ± 0.03 nm | less effective than the above-described MGAs, but still higher than DDM |  |  |  |  | 
4 | CCCCCCCCCCCCCCC(CO[C@@H]1OC(CO)[C@@H](O)C(O)C1O)(CO[C@@H]1OC(CO)[C@@H](O)C(O)C1O)Cc1cc(CC(CCCCCCCCCCCCCC)(CO[C@@H]2OC(CO)[C@@H](O)C(O)C2O)CO[C@@H]2OC(CO)[C@@H](O)C(O)C2O)cc(CC(CCCCCCCCCCCCCC)(CO[C@@H]2OC(CO)[C@@H](O)C(O)C2O)CO[C@@H]2OC(CO)[C@@H](O)C(O)C2O)c1 (stereo partly drawn) [MGA-C14] | ~2 µM | ~0.0004 wt % | 3.4 ± 0.04 nm | had the highest effect |  |  | far greater UapA stabilization effect than MNG-3 | same level of protein extraction efficiency as DDM | higher MelBSt extraction ability than DDM
